These results are taken from ChEMBL document CHEMBL3822384, “2-(3-Methoxyphenyl)quinazoline Derivatives: A New Class of Direct Constitutive Androstane Receptor (CAR) Agonists” (J Med Chem, 2016).

In data set [1] the target is T1, Nuclear receptor subfamily 1 group I member 2 (Homo sapiens, UniProt O75469).
T1 sequence (O75469 whole entry): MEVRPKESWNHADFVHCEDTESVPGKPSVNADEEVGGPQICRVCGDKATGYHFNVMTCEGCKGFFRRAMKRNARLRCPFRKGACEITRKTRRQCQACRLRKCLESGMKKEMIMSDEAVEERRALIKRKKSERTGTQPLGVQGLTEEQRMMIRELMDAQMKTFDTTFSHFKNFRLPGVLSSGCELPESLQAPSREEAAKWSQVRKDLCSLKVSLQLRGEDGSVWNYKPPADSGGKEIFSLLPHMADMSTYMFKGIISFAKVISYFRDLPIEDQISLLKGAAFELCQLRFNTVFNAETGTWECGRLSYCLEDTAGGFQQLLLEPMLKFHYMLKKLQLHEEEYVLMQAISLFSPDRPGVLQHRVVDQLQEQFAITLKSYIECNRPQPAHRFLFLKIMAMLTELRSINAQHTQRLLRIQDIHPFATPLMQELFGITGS
In words: (§1) Agonist activity at PXR expressed in human HepG2 cells after 24 hrs by p3A4-luciferase reporter gene assay. A general note: In a reporter assay the amount or activity of a reporter protein is the signal.

The next data set has as its target T2, PXR (NR1I2) (Homo sapiens, UniProt O75469).
T2 sequence (O75469 whole entry): T1 sequence (O75469 whole entry)
The data set is described as §1. The following applies: human, HepG2 cells expressing PXR.

For data set [2], the target named is T3, Glucocorticoid receptor (Homo sapiens) (UniProt P04150).
T3 sequence (whole entry): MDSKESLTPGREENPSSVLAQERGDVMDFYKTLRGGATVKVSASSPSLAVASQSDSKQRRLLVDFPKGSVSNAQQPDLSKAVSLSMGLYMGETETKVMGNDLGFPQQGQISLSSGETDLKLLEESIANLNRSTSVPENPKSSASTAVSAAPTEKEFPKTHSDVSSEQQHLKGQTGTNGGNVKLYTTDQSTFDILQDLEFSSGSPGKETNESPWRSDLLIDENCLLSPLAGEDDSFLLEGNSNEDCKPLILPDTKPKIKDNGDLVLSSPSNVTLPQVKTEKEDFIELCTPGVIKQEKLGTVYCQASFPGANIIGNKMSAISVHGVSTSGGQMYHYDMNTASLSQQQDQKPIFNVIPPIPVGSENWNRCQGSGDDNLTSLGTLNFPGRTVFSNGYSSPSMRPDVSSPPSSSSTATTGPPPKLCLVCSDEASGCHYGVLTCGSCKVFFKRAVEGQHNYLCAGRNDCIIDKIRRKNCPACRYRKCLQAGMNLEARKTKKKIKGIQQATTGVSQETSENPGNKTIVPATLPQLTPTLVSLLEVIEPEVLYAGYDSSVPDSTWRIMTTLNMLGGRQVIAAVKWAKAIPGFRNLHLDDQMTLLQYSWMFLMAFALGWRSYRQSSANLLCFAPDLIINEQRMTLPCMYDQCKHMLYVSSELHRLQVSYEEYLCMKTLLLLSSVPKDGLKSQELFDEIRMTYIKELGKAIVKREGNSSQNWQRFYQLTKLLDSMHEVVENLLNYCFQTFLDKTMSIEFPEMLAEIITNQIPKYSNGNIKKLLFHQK
In words: Agonist activity at glucocorticoid receptor (unknown origin).

In data set [3] the target is T4, Vitamin D3 receptor (Homo sapiens) (UniProt P11473).
T4 sequence (whole entry): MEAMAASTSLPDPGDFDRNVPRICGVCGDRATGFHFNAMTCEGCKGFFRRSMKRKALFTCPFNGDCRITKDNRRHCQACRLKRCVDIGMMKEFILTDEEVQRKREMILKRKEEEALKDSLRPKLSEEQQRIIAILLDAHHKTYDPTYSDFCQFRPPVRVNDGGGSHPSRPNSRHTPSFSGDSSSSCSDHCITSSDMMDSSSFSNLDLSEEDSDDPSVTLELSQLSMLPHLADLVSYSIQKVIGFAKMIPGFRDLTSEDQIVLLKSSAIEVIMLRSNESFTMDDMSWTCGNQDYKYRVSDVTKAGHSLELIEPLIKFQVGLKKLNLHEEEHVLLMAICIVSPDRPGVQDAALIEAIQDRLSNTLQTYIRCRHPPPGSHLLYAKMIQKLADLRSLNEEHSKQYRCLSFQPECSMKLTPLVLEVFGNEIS
In words: Agonist activity at VDR in human primary hepatocytes assessed as upregulation of CYP3A4 mRNA expression at 10 uM after 24 hrs by qRT-PCR method. The class given is cell-based. The conditions noted are these: Hepatocyte.

Data set [4] concerns the target T4, Vitamin D3 receptor (Homo sapiens). In words: Agonist activity at VDR in human primary hepatocytes assessed as upregulation of CYP3A5 mRNA expression at 10 uM after 24 hrs by qRT-PCR method. The format is cell-based. The following applies: Hepatocyte.
The target of data set [5] is T1, Nuclear receptor subfamily 1 group I member 2. In words: Agonist activity at PXR in human primary hepatocytes assessed as upregulation of UGT1A1 mRNA expression at 10 uM after 24 hrs by qRT-PCR method. The class given is cell-based, Hepatocyte. In general terms: Real-time PCR tracks product formation cycle by cycle.
Another data set addresses Cytochrome P450 3A4 (Homo sapiens, UniProt P08684). In words: Inhibition of recombinant human CYP3A4 by P450-Glo luminescence assay. The class given is ADME.
For a further data set, the target named is T5, Cytochrome P450 1A2 (Homo sapiens, UniProt P05177).
T5 sequence (P05177 whole entry): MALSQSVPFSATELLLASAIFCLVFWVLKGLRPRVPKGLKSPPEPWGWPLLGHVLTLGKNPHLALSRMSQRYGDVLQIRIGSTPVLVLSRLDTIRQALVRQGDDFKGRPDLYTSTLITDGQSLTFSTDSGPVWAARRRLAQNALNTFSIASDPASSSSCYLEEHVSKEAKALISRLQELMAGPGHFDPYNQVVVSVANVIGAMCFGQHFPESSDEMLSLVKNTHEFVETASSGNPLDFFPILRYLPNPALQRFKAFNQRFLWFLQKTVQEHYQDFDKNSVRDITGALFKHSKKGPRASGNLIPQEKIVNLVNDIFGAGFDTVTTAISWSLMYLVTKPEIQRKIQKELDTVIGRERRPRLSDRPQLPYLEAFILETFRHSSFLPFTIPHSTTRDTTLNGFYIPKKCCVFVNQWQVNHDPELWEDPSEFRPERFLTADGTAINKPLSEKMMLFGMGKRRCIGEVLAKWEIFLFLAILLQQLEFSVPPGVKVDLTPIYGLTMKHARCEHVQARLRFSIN
The data set can be described thus: Inhibition of recombinant human CYP1A2 by P450-Glo luminescence assay. The format is ADME.

The next data set has as its target Cytochrome P450 2C9 (Homo sapiens, UniProt P11712). In words: Inhibition of recombinant human CYP2C9 by P450-Glo luminescence assay. The format is ADME.
The target of the next data set is Cytochrome P450 2D6 (Homo sapiens, UniProt P10635). In words: Inhibition of recombinant human CYP2D6 by P450-Glo luminescence assay. The format is ADME.
Cytochrome P450 2D6, sequence (P10635 whole entry): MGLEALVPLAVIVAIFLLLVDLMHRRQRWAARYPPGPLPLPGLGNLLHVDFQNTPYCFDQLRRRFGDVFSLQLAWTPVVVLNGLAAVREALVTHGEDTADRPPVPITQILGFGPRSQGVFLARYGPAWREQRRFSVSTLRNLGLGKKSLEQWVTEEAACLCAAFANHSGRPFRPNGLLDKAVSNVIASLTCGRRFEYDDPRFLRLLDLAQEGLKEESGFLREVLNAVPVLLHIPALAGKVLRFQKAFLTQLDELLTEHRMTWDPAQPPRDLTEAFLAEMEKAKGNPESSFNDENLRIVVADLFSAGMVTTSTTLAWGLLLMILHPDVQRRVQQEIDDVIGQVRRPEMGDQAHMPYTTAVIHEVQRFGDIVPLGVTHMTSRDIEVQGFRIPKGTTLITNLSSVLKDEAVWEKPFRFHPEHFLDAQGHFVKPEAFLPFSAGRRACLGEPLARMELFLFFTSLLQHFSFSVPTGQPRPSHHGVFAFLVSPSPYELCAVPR

Calls of active or inactive are those of the source. The calls are words filed in the database; no cut-off is given here. Some results are limits rather than exact numbers.

In general, EC50 refers to the concentration needed to bring the measured effect to its halfway point. A lower EC50 goes with higher potency in that assay. By Emax is commonly meant the maximal effect, on the per cent scale that the assay sets. As usually defined, the IC50 is the midpoint of a concentration-inhibition curve.

Cytochrome P450 2C9, sequence (P11712 whole entry): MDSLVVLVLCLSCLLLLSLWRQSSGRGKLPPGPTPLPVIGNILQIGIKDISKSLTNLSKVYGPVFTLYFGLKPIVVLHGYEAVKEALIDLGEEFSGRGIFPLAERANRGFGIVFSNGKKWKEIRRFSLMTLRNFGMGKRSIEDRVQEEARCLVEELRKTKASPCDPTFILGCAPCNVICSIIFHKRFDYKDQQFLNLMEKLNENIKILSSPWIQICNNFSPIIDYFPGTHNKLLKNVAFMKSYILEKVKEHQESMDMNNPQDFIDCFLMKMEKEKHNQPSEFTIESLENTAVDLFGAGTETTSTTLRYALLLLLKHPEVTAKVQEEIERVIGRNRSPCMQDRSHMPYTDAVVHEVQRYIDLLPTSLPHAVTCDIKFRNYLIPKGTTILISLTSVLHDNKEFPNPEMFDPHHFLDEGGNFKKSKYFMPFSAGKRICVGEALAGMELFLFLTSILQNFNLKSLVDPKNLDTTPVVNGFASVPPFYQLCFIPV
Cytochrome P450 3A4, sequence (P08684 whole entry): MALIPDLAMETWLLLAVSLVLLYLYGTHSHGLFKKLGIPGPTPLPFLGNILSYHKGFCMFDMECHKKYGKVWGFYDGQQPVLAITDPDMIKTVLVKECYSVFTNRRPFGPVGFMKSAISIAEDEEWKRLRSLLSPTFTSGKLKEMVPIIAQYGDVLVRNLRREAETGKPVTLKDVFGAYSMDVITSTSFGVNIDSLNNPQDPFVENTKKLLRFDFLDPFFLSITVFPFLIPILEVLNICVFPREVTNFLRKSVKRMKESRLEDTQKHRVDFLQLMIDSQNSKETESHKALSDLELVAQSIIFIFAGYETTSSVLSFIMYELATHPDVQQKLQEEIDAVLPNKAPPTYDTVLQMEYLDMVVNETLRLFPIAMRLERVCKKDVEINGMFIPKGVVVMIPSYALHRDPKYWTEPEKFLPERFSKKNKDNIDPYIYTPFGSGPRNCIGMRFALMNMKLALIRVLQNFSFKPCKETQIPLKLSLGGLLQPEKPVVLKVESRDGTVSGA

The compound `COc1cccc(-c2nc3ccccc3c(=S)[nH]2)c1` showed an EC50 in [1] of 0.86 µM. The compound also yielded a maximal effect (Emax) at 24 h on PXR (NR1I2) of 165%. The result in data set [2] was inactive. Further, the outcome in data set [3] and in data set [4] was Active. Besides, in data set [5], the result was Active. The IC50 result on Cytochrome P450 3A4 is “Not Active”; on Cytochrome P450 1A2, 0.75 µM; on Cytochrome P450 2C9, 11 µM; at Cytochrome P450 2D6 it was “Not Active”.

On to `COc1cccc(-c2nc(SC)c3ccccc3n2)c1`, for which the EC50 in [1] is above 3.5 µM. The same compound returned a maximum response (Emax) at 24 h on PXR (NR1I2) above 250%. Besides, in [2], the outcome was inactive. The outcome in data set [3] and in data set [4] was Active. Also, in data set [5], the outcome was Active. Moreover, the half-maximal inhibitory concentration (IC50) at Cytochrome P450 3A4 (read-out: IC50) came out at 22.9 µM; on Cytochrome P450 1A2 it was 0.42 µM; on Cytochrome P450 2C9 it was 4.19 µM; on Cytochrome P450 2D6 (read-out: IC50) it was 17.3 µM.

In the case of `COc1cccc(-c2nc(OC)c3ccccc3n2)c1`, the concentration giving a half-maximal response (EC50) in [1] was above 3 µM. Also, the Emax at 24 h on PXR (NR1I2) is above 250%. The result in data set [2] was inactive. Moreover, the outcome in [3] and in data set [4] was Active. For the same compound, the result in [5] was Active. In addition, the IC50 was 12.9 µM at Cytochrome P450 3A4 (read-out: IC50), 0.18 µM on Cytochrome P450 1A2, 5.03 µM at Cytochrome P450 2C9 and “Not Active” at Cytochrome P450 2D6.
